Source: patent publication US12162839B1, “4,5-bis(4-bromophenyl)-2-(4-bromophenyl)-1-hexyl-1H-imidazole as an antimicrobial compound” (KING FAISAL UNIVERSITY, priority 2023, dated 2024)

How the values were obtained:
Type in all cases: cell-based
Conditions in all cases: after 10, 20, 40 and 60 minutes at all dilutions 1:100, 1:200, 1:400, 1:800
Staphylococcus aureus = experiment: Antimicrobial testing by agar dilution, Staphylococcus aureus
Protocol: (§1) The antimicrobial properties of the 4,5-bis(4-bromophenyl)-2-(4-bromophenyl)-1-hexyl-1H-imidazole (5) were studied by the method of agar dilution. Test solutions of each compound were prepared in concentration of 1% using dimethylformamide as a solvent then they are diluted in physiological solution to obtain the final experimental dilutions 1:100, 1:200, 1:400, 1:800. The effect of these substances were compared with furacillin in a controllable study. The testing microbes used were gram positive bacteria Staphylococcus aureus, gram negative bacteria Escherichia coli, Pseudomonas aeruginosa and Candida albicans fungi were taken. The experiments used for this survey were meat-pentonlu agar (EPA) for cultivation of bacteria and Saburo environment for fungi. Each experiment used 1 ml of test solution on each plate 500 min. Add 2 drops of emulsified with microbes feel. All experimental samples were taken from the agar after 10, 20, 40, 60 minutes in the environment on the basis of Patrk planted. Bacteria were cultivated at a temperature of 37° C. for 1 day and the mushroom was kept in a thermostat for […] at a temperature of 28° C. in the. Then results were checked.

Escherichia coli = experiment: Antimicrobial testing by agar dilution, Escherichia coli
Protocol: as §1

Pseudomonas aeruginosa = experiment: Antimicrobial testing by agar dilution, Pseudomonas aeruginosa
Protocol: as §1

Candida albicans = experiment: Antimicrobial testing by agar dilution, Candida albicans
Protocol: as §1

Measured: inhibition activity (in words)

CCCCCCn1c(-c2ccc(Br)cc2)nc(-c2ccc(Br)cc2)c1-c1ccc(Br)cc1 [4,5-bis(4-bromophenyl)-2-(4-bromophenyl)-1-hexyl-1H-imidazole]
highest inhibition activity: all assays above
